Measurements reported in patent US9155759B2, “Heterochain aliphatic poly-N-oxide copolymers and vaccinating agents and drugs based thereon” (priority 2010, dated 2015).
Marks after values point to notes of the source that are not given here.

Experiments:
[1] = Antidotal properties at acute CuSo4 poisoning; format: in vivo
Protocol: The investigation was done in vivo at an acute CuSo4 poisoning. The preparations are administered to 7 groups of animals of which a normal saline solution is administered to the animals of the first group, CuSo4 alone in the doses fatal for animals (mg/kg): 12.5; 25.0; and 50.0 to the animals of groups 2÷4, and the similar CuSo4 doses in combination with the similar doses of CP—NO-3-1 are administered to the animals of groups 5÷7.
The results of investigations presented in table 4 testify to a pronounced antidotal effect of CP—NO.

erythrocytes = test: Quartz (SiO2) erythrocyte hemolysis model; format: cell-based, Human; conditions: for Protection from hemolysis / Hemolysis: SiO2 3 mg; for Hemolysis: 1 hour, 37° C.
Protocol: The investigation was done on a model of quartz (SiO2) erythrocyte hemolysis using the international standard of quartz dust DQ-12 having a dispersion degree of less than 3 μm according to the A. David method (1976). Human blood was taken with heparin, erythrocytes were thrice washed in a 10-fold volume of a water-white Henx solution followed by centrifuging at 3000 rpm for 10 min. An erythrocyte suspension was resuspended to a 4% concentration ([…]). All investigations were done in 3÷5 parallel assays. The samples of SiO2 and erythrocytes were taken under continuous agitation on a magnetic agitator.
1 ml of a 4% erythrocyte suspension was mixed with 1 ml of the investigated preparation adding 1 ml of 0.3% (3 mg/ml) of a SiO2 suspension and incubated for 1 hour at a temperature of 37° C. carefully shaking the samples every 5 minutes. After incubation all samples were added with 7 ml of a buffer, it was centrifuged and the supernatant was photometered on SF-26 at 540 nm. The results of hemolysis were expressed in percents taking as 100% the content of hemoglobin in the samples of 1 ml of a 4% erythrocyte suspension with 9 ml of distilled water. The protective effect of the investigated preparations was calculated according to the formula and expressed in percents: […]
E540 K SiO2 is extinction of the control samples—a “water-silicon-erythrocytes” test tube.
A property of CP—NO to protect erythrocytes from hemolysis was compared to high molecular plasma-substituting solutions of polyvinylpyrrolidone (hemodez), dextran (polyglucin) and albumin. As a buffer, a water-white Henx solution was used.

In the case of `O=S(=O)([O-])[O-].[Cu+2]` [CuSO4], the “% of animal death at days 1-2” value ([1]; CuSO4 12.5 mg/kg alone) is reported as 100%, the “Animal survivability at day 30” value ([1]; CuSO4 12.5 mg/kg alone) is reported as 0% and the “% of animal death at days 1-2” value ([1]; CuSO4 25.0 mg/kg alone) is reported as 100%. For the same molecule, the “Animal survivability at day 30” value ([1]; CuSO4 25.0 mg/kg alone) was 0%, the “% of animal death at days 1-2” value ([1]; CuSO4 50.0 mg/kg alone) was 100% and the “Animal survivability at day 30” value ([1]; CuSO4 50.0 mg/kg alone) was 0%.

In the case of Albumin, the “protective properties against hemolysis (in words)” value (erythrocytes; comparison detoxicants) is reported as “a pronounced effect is achieved only in high doses”, the Protection from hemolysis (erythrocytes; dose 100 μg/ml) is reported as 18.0% and the Hemolysis (erythrocytes; dose 100 μg/ml) is reported as 82.0%. The Protection from hemolysis (erythrocytes; dose 1000 μg/ml) was 86.5* % and the Hemolysis (erythrocytes; dose 1000 μg/ml) was 13.5* %.
